Measurements reported in ChEMBL document CHEMBL1153175, “Pyrazole derived from (+)-3-carene; a novel potent, selective scaffold for sphingosine-1-phosphate (S1P(1)) receptor agonists” (Bioorg Med Chem Lett, 2010).
Active and inactive are the calls of the source. The calls are words filed in the database; no cut-off is given here.

Assays:
[1] = biological target: T1, Sphingosine 1-phosphate receptor 5 (Homo sapiens, UniProt Q9H228); assay: Agonist activity at human SIP5 receptor at 10 uM by [35S]GTPgammaS binding assay relative to S1P; assay type: functional
T1 sequence (Q9H228 whole entry): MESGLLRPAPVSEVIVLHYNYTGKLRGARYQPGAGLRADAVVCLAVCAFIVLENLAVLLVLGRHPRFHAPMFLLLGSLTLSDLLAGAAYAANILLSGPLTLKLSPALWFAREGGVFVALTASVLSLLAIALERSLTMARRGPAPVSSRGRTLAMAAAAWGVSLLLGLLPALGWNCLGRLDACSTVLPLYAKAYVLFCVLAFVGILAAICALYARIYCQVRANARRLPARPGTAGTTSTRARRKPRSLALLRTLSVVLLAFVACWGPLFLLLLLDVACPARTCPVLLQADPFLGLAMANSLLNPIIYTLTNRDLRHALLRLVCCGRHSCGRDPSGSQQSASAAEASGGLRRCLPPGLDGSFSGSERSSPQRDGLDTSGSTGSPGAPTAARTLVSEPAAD

[2] = biological target: T2, Sphingosine 1-phosphate receptor 4 (Homo sapiens) (UniProt O95977); assay: Agonist activity at human SIP4 receptor at 10 uM by [35S]GTPgammaS binding assay relative to S1P; assay type: functional
T2 sequence (whole entry): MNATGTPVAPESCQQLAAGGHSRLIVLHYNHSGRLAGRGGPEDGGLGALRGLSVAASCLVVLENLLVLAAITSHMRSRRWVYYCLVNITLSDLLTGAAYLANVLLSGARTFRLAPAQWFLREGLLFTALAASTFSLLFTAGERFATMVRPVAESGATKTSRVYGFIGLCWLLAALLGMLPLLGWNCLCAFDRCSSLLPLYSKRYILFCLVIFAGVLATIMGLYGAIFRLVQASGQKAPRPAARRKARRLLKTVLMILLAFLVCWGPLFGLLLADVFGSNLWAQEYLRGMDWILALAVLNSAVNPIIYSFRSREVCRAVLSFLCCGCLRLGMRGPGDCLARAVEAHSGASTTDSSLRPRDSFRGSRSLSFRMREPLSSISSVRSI

[3] = biological target: T3, Sphingosine 1-phosphate receptor 3 (Homo sapiens, UniProt Q99500); assay: Agonist activity at human SIP3 receptor by [35S]GTPgammaS binding assay; assay type: functional
T3 sequence (Q99500 whole entry): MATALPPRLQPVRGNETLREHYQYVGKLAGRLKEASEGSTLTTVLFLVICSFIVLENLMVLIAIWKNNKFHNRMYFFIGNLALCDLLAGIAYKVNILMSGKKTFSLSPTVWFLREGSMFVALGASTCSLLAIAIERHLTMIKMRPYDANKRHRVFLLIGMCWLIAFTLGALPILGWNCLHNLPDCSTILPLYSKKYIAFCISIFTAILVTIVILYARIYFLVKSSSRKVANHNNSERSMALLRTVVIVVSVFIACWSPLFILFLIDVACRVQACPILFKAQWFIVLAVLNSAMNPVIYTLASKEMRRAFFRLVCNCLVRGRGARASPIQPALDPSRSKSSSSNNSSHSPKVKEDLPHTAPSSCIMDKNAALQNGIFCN

[4] = biological target: T3, Sphingosine 1-phosphate receptor 3; assay: Agonist activity at human SIP3 receptor at 10 uM by [35S]GTPgammaS binding assay relative to S1P; assay type: functional
[5] = biological target: T4, Sphingosine 1-phosphate receptor 1 (Homo sapiens, UniProt P21453); assay: Agonist activity at human SIP1 receptor expressed in CHO cells by [35S]GTPgammaS binding assay; assay type: functional, cell-based
T4 sequence (P21453 whole entry): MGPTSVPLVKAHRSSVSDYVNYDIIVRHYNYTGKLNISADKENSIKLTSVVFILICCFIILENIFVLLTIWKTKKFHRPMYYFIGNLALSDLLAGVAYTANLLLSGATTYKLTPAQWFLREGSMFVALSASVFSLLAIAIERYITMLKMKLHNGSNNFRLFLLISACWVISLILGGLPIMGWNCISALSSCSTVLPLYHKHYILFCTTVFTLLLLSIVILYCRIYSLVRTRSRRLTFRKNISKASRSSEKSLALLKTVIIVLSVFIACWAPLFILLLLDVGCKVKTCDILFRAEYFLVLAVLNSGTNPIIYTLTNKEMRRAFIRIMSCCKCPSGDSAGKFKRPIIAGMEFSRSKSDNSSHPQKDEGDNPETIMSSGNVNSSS

[6] = biological target: T4, Sphingosine 1-phosphate receptor 1; conditions: CHO, at 10 µM
Description: Agonist activity at human SIP1 receptor expressed in CHO cells at 10 uM by [35S]GTPgammaS binding assay relative to S1P

[7] = biological target: T1, Sphingosine 1-phosphate receptor 5; assay: Agonist activity at human SIP5 receptor by [35S]GTPgammaS binding assay; assay type: functional
[8] = biological target: T5, Sphingosine 1-phosphate receptor 4 (Homo sapiens, UniProt O95977); assay: Agonist activity at human SIP4 receptor by [35S]GTPgammaS binding assay; assay type: functional
T5 sequence (O95977 whole entry): T2 sequence (whole entry)

Rattus norvegicus [9] = assay: Reduction of lymphocytes count in Lewis rat blood at 3 mg/kg. po; assay type: functional, organism-based; design: dose 3 mg/kg
Rattus norvegicus [10] = assay: Reduction of lymphocytes count in Lewis rat blood at 0.3 mg/kg. iv; assay type: functional, organism-based; design: dose 0.3 mg/kg
[11] = Chemical stability at pH >7 assessed as half life; assay type: physicochemical
Homo sapiens [12] = organism: Homo sapiens; assay: Selectivity ratio, EC50 for human S1P1 receptor over EC50 for human S1P4 receptor
Homo sapiens [13] = organism: Homo sapiens; assay: Selectivity ratio, EC50 for human S1P1 receptor over EC50 for human S1P5 receptor

Compound	Emax [1]	Emax [2]	EC50 [3]	Emax [4]	EC50 [5]	Emax [6]	EC50 [7]	EC50 [8]	half-life [11]	Ratio EC50 (Homo sapiens [12])	Ratio EC50 (Homo sapiens [13])	Activity (Rattus norvegicus [9])	Activity (Rattus norvegicus [10])
Cc1nn(C(=O)/C=C/c2cccc(C(F)(F)F)c2)c2c1[C@H]1[C@@H](C2)C1(C)C	56%	17%	> 10000 nM	46%	26 nM	65%	325 nM	> 10000 nM					
Cc1nn(C/C=C/c2ccccc2)c2c1[C@H]1[C@@H](C2)C1(C)C	10%	10%	> 10000 nM	14%	> 10000 nM	45%	> 10000 nM	> 10000 nM					
Cc1nn(S(=O)(=O)/C=C/c2ccccc2)c2c1[C@H]1[C@@H](C2)C1(C)C	-1%	-19%	> 10000 nM	-2%	> 10000 nM	7%	> 10000 nM	> 10000 nM					
Cc1nn(C(=O)/C=C/c2ccc(-c3ccccc3)cc2)c2c1[C@H]1[C@@H](C2)C1(C)C	22%	1%	> 10000 nM	8%	280 nM	76%	> 10000 nM	> 10000 nM					
COc1ccc(/C=C/C(=O)n2nc(C)c3c2C[C@@H]2[C@H]3C2(C)C)cc1OC	80%	30%	> 10000 nM	46%	25 nM	89%	900 nM	> 10000 nM					
Cc1nn(C(=O)/C=C/C2CCCCC2)c2c1[C@H]1[C@@H](C2)C1(C)C	29%	15%	> 10000 nM	3%	> 10000 nM	18%	> 10000 nM	> 10000 nM					
Cc1nn(C(=O)/C=C/c2ccc(S(N)(=O)=O)cc2)c2c1[C@H]1[C@@H](C2)C1(C)C	16%	-22%	> 1000 nM	68%	119 nM	68%	> 10000 nM	> 10000 nM					
Cc1nn(C(=O)CCc2ccccc2)c2c1[C@H]1[C@@H](C2)C1(C)C	26%	0%	> 10000 nM	38%	86 nM	55%	> 10000 nM	> 10000 nM					
CCCCCCC(=O)n1nc(C)c2c1C[C@@H]1[C@H]2C1(C)C	2%	-6%	> 10000 nM	44%	> 10000 nM	25%	> 10000 nM	> 10000 nM					

More lines, main results first:

Emax [1]	Emax [2]	EC50 [3]	Emax [4]	EC50 [5]	Emax [6]	EC50 [7]	EC50 [8]	half-life [11]	Ratio EC50 (Homo sapiens [12])	Ratio EC50 (Homo sapiens [13])	Compound	Activity (Rattus norvegicus [9])	Activity (Rattus norvegicus [10])
87%	30%	> 1000 nM	61%	17 nM	90%	345 nM	100 nM				Cc1nn(C(=O)/C=C/c2cccnc2)c2c1[C@H]1[C@@H](C2)C1(C)C		
-19%	-19%	> 1000 nM	69%	16 nM	89%	> 10000 nM	> 10000 nM				Cc1nn(C(=O)/C=C/c2ccccc2Cl)c2c1[C@H]1[C@@H](C2)C1(C)C		
76%	21%	1350 nM	84%	11 nM	92%	82 nM	116 nM				Cc1nn(C(=O)/C=C/c2cccc(S(N)(=O)=O)c2)c2c1[C@H]1[C@@H](C2)C1(C)C		
90%	-2%	> 1000 nM	94%			1760 nM	> 10000 nM				Cc1nn(C(=O)/C=C/c2ccccc2)c2c1[C@H]1[C@@H](C2)C1(C)C		
93%	32%	345 nM	83%	7 nM	92%	130 nM	100 nM	3 h			Cc1nn(C(=O)/C=C/c2ccncc2)c2c1[C@H]1[C@@H](C2)C1(C)C	inactive	inactive
130%	28%	995 nM	84%	2 nM	90%	505 nM	560 nM		250	250	Cc1nn(C(=O)/C=C/c2cccc3[nH]ccc23)c2c1[C@H]1[C@@H](C2)C1(C)C	inactive	inactive
